# In article PMC9977887, “Crocodile defensin (CpoBD13) antifungal activity via pH-dependent phospholipid targeting and membrane disruption” (Nature Communications, 2023):
# Where no end group is shown, it is not given here.
# Assays:
# [1] = Calcein-encapsulated liposome lysis assay; assay type: biochemical
# Protocol: Liposomes were prepared using natural chicken egg L-α-phophatidylcholine and L-α-phosphatidic acid dissolved in chloroform (Avanti Polar Lipids), and liposome pulldowns (at pH 7.4) and calcein-encapsulated liposome lysis assays were performed as previously described. For liposome pulldowns performed at pH 5.5, the same protocol was used with minor variations. The desiccated lipid films were resuspended in 20 mM MES pH 7.4 and were washed in the same buffer during the centrifugation process. After the final wash step, the liposome pellets were resuspended in 20 mM MES pH 5.5 and incubated with CpoBD13 or mutants thereof (also prepared in the same acidic buffer).
# U937 cells = experiment: Propidium iodide uptake assay in serum-free medium; assay type: cell-based, human
# Protocol: For propidium iodide uptake assays in serum-free medium, U937 cells (after centrifugation at 300 g, 5 min) were washed once in serum-free RPMI-1640, pelleted again (as previous centrifugation) and resuspended in serum-free media. […] PI (diluted in ice-cold PBS) was added to a final concentration of 1 µg/mL before analysis by flow cytometry using a BD FACSCanto II with FACSDiva 8.0.1 (BD Biosciences).
# PC3 cells = experiment: MTT/MTS cell viability assay; assay type: cell-based, human; settings: 48 h, at the assessed concentrations
# Description: Human epithelial cervical cancer (HeLa, ATCC, CCL-2), prostate cancer (PC3, ATCC, CRL-1435) and histiocytic lymphoma (U937, ATCC, CRL-1593.2) cells were obtained from the American Type Culture Collection (Gaithersburg, Maryland) and cultured in RPMI-1640 medium (Thermo Fisher Scientific, Waltham, MA) supplemented with 5–10% (v/v) foetal bovine serum (FBS), 100 U/mL penicillin and 100 U/mL streptomycin (Invitrogen, Carlsbad, CA). Adult human dermal fibroblasts (AHDF, Lonza, CC-2511) cells were obtained from Lonza (Basel, Switzerland) and cultured in Dulbecco’s Modified Eagle Medium (DMEM) (Thermo Fisher Scientific) supplemented with 10% (v/v) FBS, 100 U/mL penicillin and 100 U/mL streptomycin. Human umbilical vein epithelial (HUVEC, Lonza, CC-2519) cells were obtained from Lonza and cultured in EBM-2 medium supplemented with EGM-2 SingleQuots (Lonza). All cell lines were maintained at 37 °C in a humidified incubator with 5% CO2.
# Cell viability assays were performed using MTT/MTS as previously described[8].
substance,measurement,setting,value
"CpoBD13: saltwater crocodile β-defensin 13, histidine-rich, three disulphide bonds, recombinantly expressed in Pichia pastoris (NGSYYSTLQCRNNHGHCRRLCFHGEQWIGNCNGRHQHCCK; disulfide (positions not given here); also: three disulphide bonds, pairings not given here)",lysis of PC:PA liposomes relative to PC only liposomes,"[1]; 20 µM, 30 min, calcein release",significant increase in the lysis
same,Lysis (%),"[1]; PC liposomes, replicate 1",54.3884%
same,Lysis (%),"[1]; PC liposomes, replicate 2",55.3559%
same,Lysis (%),"[1]; PC liposomes, replicate 3",54.0992%
same,Lysis (%),"[1]; PC:PA liposomes, replicate 1",67.3935%
same,Lysis (%),"[1]; PC:PA liposomes, replicate 2",66.6111%
same,Lysis (%),"[1]; PC:PA liposomes, replicate 3",65.2527%
same,Lysis (%),"[1]; PC:PA, 20 µM, 0 min, replicate 1",25.7371%
same,Lysis (%),"[1]; PC:PA, 20 µM, 0 min, replicate 2",19.5617%
same,Lysis (%),"[1]; PC:PA, 20 µM, 0 min, replicate 3",31.0288%
same,Lysis (%),"[1]; PC:PA, 20 µM, 2 min, replicate 1",44.3847%
same,Lysis (%),"[1]; PC:PA, 20 µM, 2 min, replicate 2",47.8762%
same,Lysis (%),"[1]; PC:PA, 20 µM, 2 min, replicate 3",47.362%
same,Lysis (%),"[1]; PC:PA, 20 µM, 4 min, replicate 1",50.7757%
same,Lysis (%),"[1]; PC:PA, 20 µM, 4 min, replicate 2",55.3375%
same,Lysis (%),"[1]; PC:PA, 20 µM, 4 min, replicate 3",52.3336%
same,Lysis (%),"[1]; PC:PA, 20 µM, 6 min, replicate 1",56.1428%
same,Lysis (%),"[1]; PC:PA, 20 µM, 6 min, replicate 2",57.6724%
same,Lysis (%),"[1]; PC:PA, 20 µM, 6 min, replicate 3",56.2525%
same,Lysis (%),"[1]; PC:PA, 20 µM, 8 min, replicate 1",57.9433%
same,Lysis (%),"[1]; PC:PA, 20 µM, 8 min, replicate 2",61.2343%
same,Lysis (%),"[1]; PC:PA, 20 µM, 8 min, replicate 3",57.4403%
same,Lysis (%),"[1]; PC:PA, 20 µM, 10 min, replicate 1",60.1091%
same,Lysis (%),"[1]; PC:PA, 20 µM, 10 min, replicate 2",61.4149%
same,Lysis (%),"[1]; PC:PA, 20 µM, 10 min, replicate 3",58.1894%
same,Lysis (%),"[1]; PC:PA, 20 µM, 12 min, replicate 1",61.5771%
same,Lysis (%),"[1]; PC:PA, 20 µM, 12 min, replicate 2",62.8368%
same,Lysis (%),"[1]; PC:PA, 20 µM, 12 min, replicate 3",59.7071%
same,Lysis (%),"[1]; PC:PA, 20 µM, 14 min, replicate 1",62.1444%
same,Lysis (%),"[1]; PC:PA, 20 µM, 14 min, replicate 2",63.0568%
same,Lysis (%),"[1]; PC:PA, 20 µM, 14 min, replicate 3",60.7639%
same,Lysis (%),"[1]; PC:PA, 20 µM, 16 min, replicate 1",64.0158%
same,Lysis (%),"[1]; PC:PA, 20 µM, 16 min, replicate 2",63.5735%
same,Lysis (%),"[1]; PC:PA, 20 µM, 16 min, replicate 3",61.3601%
same,Lysis (%),"[1]; PC:PA, 20 µM, 18 min, replicate 1",65.2175%
same,Lysis (%),"[1]; PC:PA, 20 µM, 18 min, replicate 2",63.6472%
same,Lysis (%),"[1]; PC:PA, 20 µM, 18 min, replicate 3",61.6924%
same,Lysis (%),"[1]; PC:PA, 20 µM, 20 min, replicate 1",64.1335%
same,Lysis (%),"[1]; PC:PA, 20 µM, 20 min, replicate 2",65.2803%
same,Lysis (%),"[1]; PC:PA, 20 µM, 20 min, replicate 3",62.4881%
same,Lysis (%),"[1]; PC:PA, 20 µM, 22 min, replicate 1",64.7756%
same,Lysis (%),"[1]; PC:PA, 20 µM, 22 min, replicate 2",65.3585%
same,Lysis (%),"[1]; PC:PA, 20 µM, 22 min, replicate 3",63.4838%
same,Lysis (%),"[1]; PC:PA, 20 µM, 24 min, replicate 1",65.4459%
same,Lysis (%),"[1]; PC:PA, 20 µM, 24 min, replicate 2",66.2461%
same,Lysis (%),"[1]; PC:PA, 20 µM, 24 min, replicate 3",64.0406%
same,Lysis (%),"[1]; PC:PA, 20 µM, 26 min, replicate 1",65.9416%
same,Lysis (%),"[1]; PC:PA, 20 µM, 26 min, replicate 2",66.5138%
same,Lysis (%),"[1]; PC:PA, 20 µM, 26 min, replicate 3",64.3943%
same,Lysis (%),"[1]; PC:PA, 20 µM, 28 min, replicate 1",66.2501%
same,Lysis (%),"[1]; PC:PA, 20 µM, 28 min, replicate 2",65.4475%
same,Lysis (%),"[1]; PC:PA, 20 µM, 28 min, replicate 3",64.7127%
same,Lysis (%),"[1]; PC:PA, 20 µM, 30 min, replicate 1",67.3935%
same,Lysis (%),"[1]; PC:PA, 20 µM, 30 min, replicate 2",66.6111%
same,Lysis (%),"[1]; PC:PA, 20 µM, 30 min, replicate 3",65.2527%
same,Lysis (%),"[1]; PC, 20 µM, 0 min, replicate 1",15.1234%
same,Lysis (%),"[1]; PC, 20 µM, 0 min, replicate 2",15.1242%
same,Lysis (%),"[1]; PC, 20 µM, 0 min, replicate 3",13.8859%
same,Lysis (%),"[1]; PC, 20 µM, 2 min, replicate 1",39.0447%
same,Lysis (%),"[1]; PC, 20 µM, 2 min, replicate 2",32.4816%
same,Lysis (%),"[1]; PC, 20 µM, 2 min, replicate 3",30.5639%
same,Lysis (%),"[1]; PC, 20 µM, 4 min, replicate 1",45.2997%
same,Lysis (%),"[1]; PC, 20 µM, 4 min, replicate 2",38.3127%
same,Lysis (%),"[1]; PC, 20 µM, 4 min, replicate 3",36.68%
same,Lysis (%),"[1]; PC, 20 µM, 6 min, replicate 1",48.9071%
same,Lysis (%),"[1]; PC, 20 µM, 6 min, replicate 2",41.9281%
same,Lysis (%),"[1]; PC, 20 µM, 6 min, replicate 3",41.2305%
same,Lysis (%),"[1]; PC, 20 µM, 8 min, replicate 1",49.7649%
same,Lysis (%),"[1]; PC, 20 µM, 8 min, replicate 2",44.0474%
same,Lysis (%),"[1]; PC, 20 µM, 8 min, replicate 3",43.6445%
same,Lysis (%),"[1]; PC, 20 µM, 10 min, replicate 1",51.7674%
same,Lysis (%),"[1]; PC, 20 µM, 10 min, replicate 2",44.7293%
same,Lysis (%),"[1]; PC, 20 µM, 10 min, replicate 3",45.2138%
same,Lysis (%),"[1]; PC, 20 µM, 12 min, replicate 1",52.4795%
same,Lysis (%),"[1]; PC, 20 µM, 12 min, replicate 2",46.5217%
same,Lysis (%),"[1]; PC, 20 µM, 12 min, replicate 3",46.4513%
same,Lysis (%),"[1]; PC, 20 µM, 14 min, replicate 1",52.8236%
same,Lysis (%),"[1]; PC, 20 µM, 14 min, replicate 2",47.6803%
same,Lysis (%),"[1]; PC, 20 µM, 14 min, replicate 3",47.9678%
same,Lysis (%),"[1]; PC, 20 µM, 16 min, replicate 1",54.9403%
same,Lysis (%),"[1]; PC, 20 µM, 16 min, replicate 2",49.0986%
same,Lysis (%),"[1]; PC, 20 µM, 16 min, replicate 3",49.0311%
same,Lysis (%),"[1]; PC, 20 µM, 18 min, replicate 1",53.0929%
same,Lysis (%),"[1]; PC, 20 µM, 18 min, replicate 2",50.179%
same,Lysis (%),"[1]; PC, 20 µM, 18 min, replicate 3",50.039%
same,Lysis (%),"[1]; PC, 20 µM, 20 min, replicate 1",53.041%
same,Lysis (%),"[1]; PC, 20 µM, 20 min, replicate 2",50.8527%
same,Lysis (%),"[1]; PC, 20 µM, 20 min, replicate 3",51.0255%
same,Lysis (%),"[1]; PC, 20 µM, 22 min, replicate 1",54.0904%
same,Lysis (%),"[1]; PC, 20 µM, 22 min, replicate 2",52.2587%
same,Lysis (%),"[1]; PC, 20 µM, 22 min, replicate 3",51.6328%
same,Lysis (%),"[1]; PC, 20 µM, 24 min, replicate 1",54.3794%
same,Lysis (%),"[1]; PC, 20 µM, 24 min, replicate 2",53.0954%
same,Lysis (%),"[1]; PC, 20 µM, 24 min, replicate 3",52.0331%
same,Lysis (%),"[1]; PC, 20 µM, 26 min, replicate 1",55.6275%
same,Lysis (%),"[1]; PC, 20 µM, 26 min, replicate 2",53.8088%
same,Lysis (%),"[1]; PC, 20 µM, 26 min, replicate 3",52.9179%
same,Lysis (%),"[1]; PC, 20 µM, 28 min, replicate 1",53.4363%
same,Lysis (%),"[1]; PC, 20 µM, 28 min, replicate 2",55.2629%
same,Lysis (%),"[1]; PC, 20 µM, 28 min, replicate 3",53.0065%
same,Lysis (%),"[1]; PC, 20 µM, 30 min, replicate 1",54.3884%
same,Lysis (%),"[1]; PC, 20 µM, 30 min, replicate 2",55.3559%
same,Lysis (%),"[1]; PC, 20 µM, 30 min, replicate 3",54.0992%
same,PI positivity (%),"U937 cells; 1.5625 μM CpoBD13, replicate 1",3.27%
same,PI positivity (%),"U937 cells; 1.5625 μM CpoBD13, replicate 2",9.7%
same,PI positivity (%),"U937 cells; 1.5625 μM CpoBD13, replicate 3",3.5%
same,PI positivity (%),"U937 cells; 3.125 μM CpoBD13, replicate 1",2.47%
same,PI positivity (%),"U937 cells; 3.125 μM CpoBD13, replicate 2",6.8%
same,PI positivity (%),"U937 cells; 3.125 μM CpoBD13, replicate 3",4.1%
same,PI positivity (%),"U937 cells; 6.25 μM CpoBD13, replicate 1",1.67%
same,PI positivity (%),"U937 cells; 6.25 μM CpoBD13, replicate 2",10.8%
same,PI positivity (%),"U937 cells; 6.25 μM CpoBD13, replicate 3",1%
same,PI positivity (%),"U937 cells; 12.5 μM CpoBD13, replicate 1",3.27%
same,PI positivity (%),"U937 cells; 12.5 μM CpoBD13, replicate 2",9.1%
same,PI positivity (%),"U937 cells; 12.5 μM CpoBD13, replicate 3",14.3%
same,PI positivity (%),"U937 cells; 25 μM CpoBD13, replicate 1",2.27%
same,PI positivity (%),"U937 cells; 25 μM CpoBD13, replicate 2",13.1%
same,PI positivity (%),"U937 cells; 25 μM CpoBD13, replicate 3",14.3%
same,PI positivity (%),"U937 cells; 50 μM CpoBD13, replicate 1",2.77%
same,PI positivity (%),"U937 cells; 50 μM CpoBD13, replicate 2",20.5%
same,PI positivity (%),"U937 cells; 50 μM CpoBD13, replicate 3",18.6%
same,PI positivity (%),"U937 cells; 100 μM CpoBD13, replicate 1",15.77%
same,PI positivity (%),"U937 cells; 100 μM CpoBD13, replicate 2",6.8%
same,PI positivity (%),"U937 cells; 100 μM CpoBD13, replicate 3",23%
same,membrane permeabilisation (PI uptake),"U937 cells; serum-free media, 30 min, 37°C",unable to effectively permeabilise
same,effect on cell viability,PC3 cells,did not affect the viability
